In ChEMBL document CHEMBL2157895, “Selective Dual Inhibitors of the Cancer-Related Deubiquitylating Proteases USP7 and USP47” (ACS Med Chem Lett, 2012):
Active and inactive are the calls of the source.

How the values were obtained:
[1] = Inhibition of 20s proteasome
[2] = target: T1, Ubiquitin carboxyl-terminal hydrolase 2 (Homo sapiens) (UniProt O75604); test: Inhibition of USP2 expressed in Escherichia coli BL21(DE3) by Ub-CHOP reporter assay
T1 sequence (whole entry): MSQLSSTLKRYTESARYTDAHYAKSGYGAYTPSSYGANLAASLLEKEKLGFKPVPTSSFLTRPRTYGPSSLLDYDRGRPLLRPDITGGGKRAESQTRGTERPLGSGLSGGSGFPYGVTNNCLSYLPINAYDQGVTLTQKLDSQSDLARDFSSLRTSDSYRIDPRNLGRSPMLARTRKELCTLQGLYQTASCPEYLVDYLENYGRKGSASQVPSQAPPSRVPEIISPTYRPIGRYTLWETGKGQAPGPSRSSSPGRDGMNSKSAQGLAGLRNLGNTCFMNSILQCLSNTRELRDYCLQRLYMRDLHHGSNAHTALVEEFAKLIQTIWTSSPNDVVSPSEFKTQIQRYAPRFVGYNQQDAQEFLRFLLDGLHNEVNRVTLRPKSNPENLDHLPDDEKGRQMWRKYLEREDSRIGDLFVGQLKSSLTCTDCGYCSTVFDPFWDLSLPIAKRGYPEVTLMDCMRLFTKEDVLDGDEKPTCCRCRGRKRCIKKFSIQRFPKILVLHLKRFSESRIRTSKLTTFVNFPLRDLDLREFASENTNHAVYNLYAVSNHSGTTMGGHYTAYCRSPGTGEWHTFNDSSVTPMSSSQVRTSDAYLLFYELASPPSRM

[3] = target: T2, Ubiquitin carboxyl-terminal hydrolase 5 (Homo sapiens) (UniProt P45974); test: Inhibition of USP5 by Ub-CHOP reporter assay
T2 sequence (whole entry): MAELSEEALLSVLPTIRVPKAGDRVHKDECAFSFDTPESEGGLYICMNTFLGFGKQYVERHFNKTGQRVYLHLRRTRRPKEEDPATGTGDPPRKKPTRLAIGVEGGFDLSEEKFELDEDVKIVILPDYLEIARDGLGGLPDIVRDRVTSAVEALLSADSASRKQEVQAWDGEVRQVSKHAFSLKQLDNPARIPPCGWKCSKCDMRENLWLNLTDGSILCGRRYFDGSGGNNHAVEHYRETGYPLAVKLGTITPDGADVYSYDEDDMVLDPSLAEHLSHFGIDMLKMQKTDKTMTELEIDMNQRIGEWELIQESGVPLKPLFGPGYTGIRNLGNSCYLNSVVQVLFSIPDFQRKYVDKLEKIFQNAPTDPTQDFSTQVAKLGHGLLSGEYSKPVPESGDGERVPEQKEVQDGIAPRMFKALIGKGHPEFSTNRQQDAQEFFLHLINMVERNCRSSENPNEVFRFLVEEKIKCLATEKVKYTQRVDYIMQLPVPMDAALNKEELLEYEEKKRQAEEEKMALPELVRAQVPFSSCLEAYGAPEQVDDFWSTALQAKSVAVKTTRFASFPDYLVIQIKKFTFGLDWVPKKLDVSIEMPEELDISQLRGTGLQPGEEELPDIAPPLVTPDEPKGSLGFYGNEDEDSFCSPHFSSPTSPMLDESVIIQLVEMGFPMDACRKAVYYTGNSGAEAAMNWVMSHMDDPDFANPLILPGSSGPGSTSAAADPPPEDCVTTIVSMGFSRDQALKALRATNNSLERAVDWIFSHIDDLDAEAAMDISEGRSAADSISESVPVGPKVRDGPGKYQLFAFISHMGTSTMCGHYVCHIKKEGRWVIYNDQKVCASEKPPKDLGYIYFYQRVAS

[4] = target: T3, Ubiquitin carboxyl-terminal hydrolase 28 (Homo sapiens) (UniProt Q96RU2); test: Inhibition of USP28 by Ub-CHOP reporter assay
T3 sequence (whole entry): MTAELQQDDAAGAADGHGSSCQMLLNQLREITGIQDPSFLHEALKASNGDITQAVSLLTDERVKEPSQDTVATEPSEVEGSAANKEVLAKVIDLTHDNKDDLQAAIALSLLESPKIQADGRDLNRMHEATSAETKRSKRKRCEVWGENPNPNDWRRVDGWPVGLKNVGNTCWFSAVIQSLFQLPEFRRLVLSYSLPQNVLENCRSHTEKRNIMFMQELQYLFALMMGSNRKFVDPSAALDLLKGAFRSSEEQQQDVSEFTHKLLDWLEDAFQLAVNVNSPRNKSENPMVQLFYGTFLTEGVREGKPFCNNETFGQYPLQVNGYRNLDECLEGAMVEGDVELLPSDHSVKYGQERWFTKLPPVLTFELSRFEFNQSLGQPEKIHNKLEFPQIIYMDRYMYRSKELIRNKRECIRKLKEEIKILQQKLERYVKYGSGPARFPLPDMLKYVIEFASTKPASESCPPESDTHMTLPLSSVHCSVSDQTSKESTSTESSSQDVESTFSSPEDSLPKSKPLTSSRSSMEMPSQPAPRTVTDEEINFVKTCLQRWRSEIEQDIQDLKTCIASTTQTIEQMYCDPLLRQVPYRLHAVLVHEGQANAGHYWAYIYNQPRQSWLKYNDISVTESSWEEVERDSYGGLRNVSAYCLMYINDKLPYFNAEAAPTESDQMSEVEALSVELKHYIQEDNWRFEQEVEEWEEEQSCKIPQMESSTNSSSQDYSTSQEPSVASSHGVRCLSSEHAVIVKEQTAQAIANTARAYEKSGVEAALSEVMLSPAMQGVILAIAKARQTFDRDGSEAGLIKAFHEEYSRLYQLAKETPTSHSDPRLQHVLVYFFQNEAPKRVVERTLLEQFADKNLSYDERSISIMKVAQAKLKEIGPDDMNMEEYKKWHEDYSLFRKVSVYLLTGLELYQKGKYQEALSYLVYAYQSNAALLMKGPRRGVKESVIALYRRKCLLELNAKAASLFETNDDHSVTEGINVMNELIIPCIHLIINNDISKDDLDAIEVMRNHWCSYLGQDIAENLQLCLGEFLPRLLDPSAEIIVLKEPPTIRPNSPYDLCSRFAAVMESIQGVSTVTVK

Measured: inhibition

CS(=O)(=O)c1ccc(NC(=O)c2cc(C#N)c(Sc3c(Cl)cncc3Cl)s2)cc1
inactive: all assays above
